Where “and” joins values, the source holds several entries; their conditions need not be identical. Equal entries are not always repeated. Where two headings read alike, the source gives them in different places.
Legend:
[1] = test system: SARS-CoV-2, isolate USA-WA1/2020; assay: microbe, parasite or virus in culture; type: cell-based; conditions: HeLa-ACE2 SARS-CoV-2 antiviral effect without P-gp inhibitor; for EC50: read-out: ec50; for EC90: read-out: ec90
[2] = target: T1, mu (MOP) (h) (Homo sapiens, UniProt P35372); assay: In vitro CEREP profiling, mu (MOP) (h) (agonist radioligand); type: binding; conditions: test compound concentration 10 uM
T1 construct: purchased Eurofins Cerep (SafetyScreen44), recognised from the panel format
T1 sequence (P35372 whole entry): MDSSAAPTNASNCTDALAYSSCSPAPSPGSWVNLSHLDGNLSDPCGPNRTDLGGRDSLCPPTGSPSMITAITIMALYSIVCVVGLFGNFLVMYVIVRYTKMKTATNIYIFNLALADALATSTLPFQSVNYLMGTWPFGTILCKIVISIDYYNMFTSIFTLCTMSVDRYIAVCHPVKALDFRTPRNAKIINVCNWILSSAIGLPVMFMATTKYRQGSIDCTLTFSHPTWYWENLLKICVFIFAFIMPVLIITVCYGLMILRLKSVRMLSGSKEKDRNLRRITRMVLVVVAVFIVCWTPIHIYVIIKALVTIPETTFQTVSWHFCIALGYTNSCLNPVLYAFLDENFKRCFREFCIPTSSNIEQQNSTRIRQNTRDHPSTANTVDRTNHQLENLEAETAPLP
Text: (§1) Supplement media-1.zip/Safety_Panel_Profile.csv, table | column: perc_inhibition

[3] = target: T2, 5-HT1A (h) (Homo sapiens, UniProt P08908); assay: In vitro CEREP profiling, 5-HT1A (h) (agonist radioligand); type: binding; conditions: test compound concentration 10 uM
T2 construct: purchased Eurofins Cerep (SafetyScreen44), recognised from the panel format
T2 sequence (P08908 1-422): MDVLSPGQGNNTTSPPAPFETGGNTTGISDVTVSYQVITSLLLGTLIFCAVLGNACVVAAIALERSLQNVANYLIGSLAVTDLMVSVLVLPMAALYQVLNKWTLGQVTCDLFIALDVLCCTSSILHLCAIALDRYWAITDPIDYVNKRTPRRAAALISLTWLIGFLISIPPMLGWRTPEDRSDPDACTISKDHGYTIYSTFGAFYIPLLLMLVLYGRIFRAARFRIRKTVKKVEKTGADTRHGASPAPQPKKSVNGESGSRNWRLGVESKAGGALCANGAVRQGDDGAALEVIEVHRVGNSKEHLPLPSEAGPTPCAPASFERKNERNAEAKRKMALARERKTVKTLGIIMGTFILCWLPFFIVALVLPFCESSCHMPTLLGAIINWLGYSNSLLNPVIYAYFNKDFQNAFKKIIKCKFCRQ
Text: as §1

[4] = test system: MERS-CoV; assay: microbe, parasite or virus in culture; type: cell-based; conditions: Vero E6/TMPRSS2 MERS-CoV antiviral effect with P-gp inhibitor
[5] = In vitro rat hepatocyte stability; type: in vitro ADME
Text: Supplement media-1.zip/Hepatocyte_Stability.csv, table | column: clint; t_half

[6] = In vitro rat SD liver microsomal stability; type: in vitro ADME
Text: Supplement media-1.zip/Hepatic_Microsomal_Stability.csv, table | column: clint; t_half

[7] = target: T3, V1a (h) (Homo sapiens, UniProt P37288); assay: In vitro CEREP profiling, V1a (h) (agonist radioligand); type: binding; conditions: test compound concentration 10 uM
T3 construct: purchased Eurofins Cerep (SafetyScreen44), recognised from the panel format
T3 sequence (P37288 whole entry): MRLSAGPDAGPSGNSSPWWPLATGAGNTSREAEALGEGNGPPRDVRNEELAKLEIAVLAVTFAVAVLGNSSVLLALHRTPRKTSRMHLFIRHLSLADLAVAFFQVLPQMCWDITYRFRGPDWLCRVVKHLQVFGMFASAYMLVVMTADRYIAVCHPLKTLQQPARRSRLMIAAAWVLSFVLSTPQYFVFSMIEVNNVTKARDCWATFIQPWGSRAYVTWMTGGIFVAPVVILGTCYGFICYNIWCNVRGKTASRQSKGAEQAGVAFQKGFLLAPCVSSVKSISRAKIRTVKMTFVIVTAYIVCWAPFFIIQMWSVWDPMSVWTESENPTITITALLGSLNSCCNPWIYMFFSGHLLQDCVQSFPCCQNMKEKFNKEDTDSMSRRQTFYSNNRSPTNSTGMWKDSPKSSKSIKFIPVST
Text: as §1

[8] = test system: KV channel; assay: In vitro CEREP profiling, KV channel (antagonist radioligand); type: binding; conditions: test compound concentration 10 uM
Text: as §1

[9] = target: T4, human CHRM2 (M2) (Homo sapiens, UniProt P08172); assay: Eurofins CEREP panel, M2; type: binding; conditions: M2 (h) (antagonist radioligand); test compound concentration 10 uM
T4 construct: purchased Eurofins Cerep (SafetyScreen44), recognised from the panel format
T4 sequence (P08172 1-466): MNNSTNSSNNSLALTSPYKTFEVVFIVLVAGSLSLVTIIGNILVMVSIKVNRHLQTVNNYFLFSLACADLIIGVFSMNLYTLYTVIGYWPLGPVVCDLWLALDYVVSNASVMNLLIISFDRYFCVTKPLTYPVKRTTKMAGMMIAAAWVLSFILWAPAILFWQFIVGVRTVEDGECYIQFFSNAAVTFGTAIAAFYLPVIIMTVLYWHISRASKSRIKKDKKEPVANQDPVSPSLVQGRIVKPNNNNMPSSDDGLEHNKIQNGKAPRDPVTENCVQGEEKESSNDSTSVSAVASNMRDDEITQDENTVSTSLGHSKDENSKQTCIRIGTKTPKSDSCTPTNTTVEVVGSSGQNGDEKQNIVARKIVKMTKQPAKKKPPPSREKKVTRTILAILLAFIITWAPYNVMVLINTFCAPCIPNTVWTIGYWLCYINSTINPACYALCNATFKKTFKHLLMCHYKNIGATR

[10] = target: T5, M1 (h) (Homo sapiens, UniProt P11229); assay: In vitro CEREP profiling, M1 (h) (antagonist radioligand); type: binding; conditions: test compound concentration 10 uM
T5 construct: purchased Eurofins Cerep (SafetyScreen44), recognised from the panel format
T5 sequence (P11229 1-460): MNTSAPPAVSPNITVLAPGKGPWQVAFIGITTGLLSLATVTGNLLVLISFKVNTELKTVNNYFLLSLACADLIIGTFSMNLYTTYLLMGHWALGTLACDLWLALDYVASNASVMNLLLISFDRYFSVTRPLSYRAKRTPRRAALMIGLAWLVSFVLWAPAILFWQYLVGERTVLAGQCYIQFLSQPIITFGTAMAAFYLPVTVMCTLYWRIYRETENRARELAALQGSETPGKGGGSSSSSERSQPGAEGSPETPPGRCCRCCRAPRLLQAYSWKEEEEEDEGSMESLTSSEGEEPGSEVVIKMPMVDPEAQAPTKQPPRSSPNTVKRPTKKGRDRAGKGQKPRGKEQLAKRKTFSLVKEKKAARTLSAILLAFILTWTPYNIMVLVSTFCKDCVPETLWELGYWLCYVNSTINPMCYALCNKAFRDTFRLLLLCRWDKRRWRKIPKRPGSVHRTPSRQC
Text: as §1

[11] = target: T6, dopamine transporter (h) (Homo sapiens, UniProt Q01959); assay: In vitro CEREP profiling, dopamine transporter (h) (antagonist radioligand); type: binding; conditions: test compound concentration 10 uM
T6 construct: purchased Eurofins Cerep (SafetyScreen44), recognised from the panel format
T6 sequence (Q01959 whole entry): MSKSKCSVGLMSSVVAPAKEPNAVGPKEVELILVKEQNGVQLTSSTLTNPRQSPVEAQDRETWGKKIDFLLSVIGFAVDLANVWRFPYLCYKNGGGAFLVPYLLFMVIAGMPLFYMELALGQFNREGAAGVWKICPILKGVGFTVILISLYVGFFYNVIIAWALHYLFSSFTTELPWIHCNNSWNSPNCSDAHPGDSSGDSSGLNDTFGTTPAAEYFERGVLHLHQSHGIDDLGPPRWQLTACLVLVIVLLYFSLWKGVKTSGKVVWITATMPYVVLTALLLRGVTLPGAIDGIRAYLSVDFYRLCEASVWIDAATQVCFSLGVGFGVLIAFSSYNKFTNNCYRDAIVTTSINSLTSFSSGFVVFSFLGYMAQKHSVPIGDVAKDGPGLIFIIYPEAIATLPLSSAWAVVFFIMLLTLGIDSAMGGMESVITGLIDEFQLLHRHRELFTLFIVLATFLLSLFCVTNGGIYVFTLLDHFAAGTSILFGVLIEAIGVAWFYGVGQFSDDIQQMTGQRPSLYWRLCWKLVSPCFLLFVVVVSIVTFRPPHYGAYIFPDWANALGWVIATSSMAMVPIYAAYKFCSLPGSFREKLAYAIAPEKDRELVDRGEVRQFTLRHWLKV
Text: as §1

[12] = target: T7, CCK1 (CCKA) (h) (Homo sapiens, UniProt P32238); assay: In vitro CEREP profiling, CCK1 (CCKA) (h) (agonist radioligand); type: binding; conditions: test compound 10 uM
T7 construct: purchased Eurofins Cerep (SafetyScreen44), recognised from the panel format
T7 sequence (P32238 1-428): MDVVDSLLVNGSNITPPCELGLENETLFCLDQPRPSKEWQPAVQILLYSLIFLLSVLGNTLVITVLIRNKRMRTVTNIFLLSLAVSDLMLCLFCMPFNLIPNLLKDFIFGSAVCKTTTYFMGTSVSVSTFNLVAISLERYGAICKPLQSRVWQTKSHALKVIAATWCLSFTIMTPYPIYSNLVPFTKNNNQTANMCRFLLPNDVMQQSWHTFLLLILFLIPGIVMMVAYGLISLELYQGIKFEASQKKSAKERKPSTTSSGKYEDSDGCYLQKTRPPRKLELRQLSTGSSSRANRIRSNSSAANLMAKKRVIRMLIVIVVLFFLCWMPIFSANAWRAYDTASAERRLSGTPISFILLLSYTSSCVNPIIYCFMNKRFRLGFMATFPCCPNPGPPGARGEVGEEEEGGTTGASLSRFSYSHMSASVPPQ
Text: as §1

[13] = maximum measured response of dose series
[14] = minimum measured response of dose series
[15] = Severe acute respiratory syndrome coronavirus 2

## CC(C)C(Nc1ncnc2[nH]ccc12)c1ccc2c(c1)S(=O)(=O)CCC2 (centres unmarked) [ASAP-0008327]
[1]; [13]
  perc_max_measured: 112.988%
[1]; [14]
  perc_min_measured: 76.031%
[1]; [15]
  EC50: > 50 µM
  EC90: > 50 µM

## CC(C)[C@@H](Nc1ncnc2[nH]c(-c3cnn(C)c3C#N)cc12)c1ccc2c(n1)OCCO2 [ASAP-0008418]
[1]; [13]
  perc_max_measured: 143.7% and 101.777%
[1]; [14]
  perc_min_measured: 4.604% and 4.949%
[1]
  EC50: 5.89 µM and 5.04 µM
  EC90: 6.44 µM and 10.5 µM

## CC(C)[C@@H](Nc1ncnc2[nH]c(-c3cnn(C)c3C#N)cc12)c1ccc2c(n1)OCCO2 [ASAP-0010716]
[2]
  perc_inhibition (% inhibition of the binding of a ligand specific for each target): 77%
[3]
  perc_inhibition (% inhibition of the binding of a ligand specific for each target): 22%
[4]; [13]
  perc_max_measured: 144.33% and 125.176%
[4]; [14]
  perc_min_measured: 55.976% and 101.272%
[4]; read-out: ec50
  EC50: > 5 µM
[4]; read-out: ec90
  EC90: > 5 µM
[5]
  clint: 182.0 uL/min/1E6 cells
  t_half: 3.8 min
[1]; maximum measured response
  perc_max_measured: 105.062%
[1]; [13]
  perc_max_measured: 119.294%
[1]; minimum measured response
  perc_min_measured: 1.471%
[1]; [14]
  perc_min_measured: 1.653%
[1]
  EC90: 7.55 µM and 9.22 µM
[6]
  clint: 156.0 µL/min/mg
  t_half: 4.46 min
[7]
  perc_inhibition (% inhibition of the binding of a ligand specific for each target): 20%
[8]
  perc_inhibition (% inhibition of the binding of a ligand specific for each target): 2%
[9]
  perc_inhibition (% inhibition of the binding of a ligand specific for each target): 15%
[10]
  perc_inhibition (% inhibition of the binding of a ligand specific for each target): 8%
[11]
  perc_inhibition (% inhibition of the binding of a ligand specific for each target): 30%
[12]
  perc_inhibition (% inhibition of the binding of a ligand specific for each target): 20%

Reference: article doi:10.1101/2024.08.19.608619, “Discovery of potent SARS-CoV-2 nsp3 macrodomain inhibitors uncovers lack of translation to cellular antiviral response” (bioRxiv, 2024)
